The target of the first assay is T1, human GPR119 receptor (Homo sapiens, UniProt Q8TDV5, S329A/T327A).
T1 construct: N-terminal leader […]; expressed in transfected cells
T1 sequence (Q8TDV5 with tags, fused parts or gaps T327A/S329A): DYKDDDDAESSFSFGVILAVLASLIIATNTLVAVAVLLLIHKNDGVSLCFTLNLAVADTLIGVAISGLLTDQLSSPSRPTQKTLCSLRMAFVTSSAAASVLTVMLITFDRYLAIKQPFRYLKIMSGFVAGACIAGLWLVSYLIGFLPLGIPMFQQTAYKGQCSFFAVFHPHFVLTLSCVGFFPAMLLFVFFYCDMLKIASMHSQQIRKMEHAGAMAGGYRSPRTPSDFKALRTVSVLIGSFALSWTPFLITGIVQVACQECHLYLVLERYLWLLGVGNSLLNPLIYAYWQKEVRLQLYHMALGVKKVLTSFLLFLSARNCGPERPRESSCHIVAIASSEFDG
In words: cAMP assay (LANCE cAMP-384) in HEK293 cells stably expressing mutant human GPR119 receptor. It counts as cell-based. The settings on record: HEK293, 20 min; 10 μM; the 28th table; read-out: stimulation in % at 10 μM. The essentials: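 HEK293 cells stably expressing human GPR119 (T327A/S329A, modified N-terminus), 1000 cells/well, exposed to compound for 20 min at 37° C. cAMP quantified by LANCE TR-FRET against a standard curve; EC50 from 12 points, 30 μM to 100 pM, or % stimulation at 10 μM.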
On the technique in general: Changes in cAMP serve as a functional read-out for many G protein-coupled receptors.
As for `CC(C)OC(=O)N1CCC(ON=C2CCN(c3ncc(-n4cccn4)cn3)CC2)CC1` [Example 51-5], the activation at 10 µM was 96%.

The assay is the same for the next values; noted with them: HEK293, 20 min; at 10 μM; printed in EC50 column of the 36th table; read-out: stimulation in % at 10 μM.
In the case of `Cc1ccc(CN2CCC(ON=C3CCN(c4ccc(S(C)(=O)=O)cc4F)CC3)CC2)c(F)c1F` [Example 66-48], the activation at 10 µM came out at 99%.

Staying with this assay, now noted: HEK293, 20 min; single concentration 10 μM; given where no EC50 value could be determined; read-out: % stimulation at 10 μM.
Consider `CC(C)OC(=O)N1CCC(ON=C2CCN(c3nccc(CO)c3F)CC2)CC1` [Example 2-64], for which the activation at 10 µM was found to be 79%.
With `CC(C)OC(=O)N1CCC(ON=C2CCN(c3cc(F)c(C4=NCCN4)cc3F)CC2)CC1` [Example 19-1, 4-{1-[4-(4,5-Dihydro-1H-imidazol-2-yl)-2,5-difluoro-phenyl]-piperidin-4-ylideneaminooxy}-piperidine-1-carboxylic acid isopropyl ester], the activation at 10 µM stood at 53%.

The same assay, now with this note: cAMP accumulation, HEK293 cells stably expressing mutant human GPR119; read-out: EC50.
Take `CC(=O)Nc1cc(F)c(N2CCC(=NOC3CCN(C(=O)OC(C)C)CC3)CC2)cc1F` [Example 35-1, 4-[1-(4-Acetylamino-2,5-difluoro-phenyl)-piperidin-4-ylideneaminooxy]-piperidine-1-carboxylic acid isopropyl ester]: the EC50 stood at 17 nM.
With `CC(C)OC(=O)N1CCC(ON=C2CCN(c3nc(Cl)ccc3CO)CC2)CC1` [Example 2-27], the EC50 was greater than 10000 nM.
On the same count and under the same terms, the result for `CC(C)OC(=O)N1CCC(ON=C2CCN(c3cc(F)c(NS(C)(=O)=O)cc3F)CC2)CC1` [Example 44-1, 4-[1-(2,5-Difluoro-4-methanesulfonylamino-phenyl)-piperidin-4-ylideneaminooxy]-piperidine-1-carboxylic acid isopropyl ester] reads 170 nM; that for `CC(C)(C)OC(=O)N1CCC(ON=C2CCN(c3ccc(S(C)(=O)=O)cc3F)CC2)CC1` [Example 1-1, tert-Butyl 4-[1-(2-Fluoro-4-methanesulfonylphenyl)piperidin-4-ylideneaminooxy]piperidine-1-carboxylate], 29 nM; that for `CC(C)OC(=O)N1CCC(ON=C2CCN(c3cccc(S(C)(=O)=O)c3)CC2)CC1` [Example 32-3], greater than 10000 nM.
`CC(C)OC(=O)N1CCC(ON=C2CCN(c3ccc(C=O)cc3)CC2)CC1` [Example 2-28]: the EC50 is greater than 10000 nM.
Still for that read-out and setting: the result for `CCS(=O)(=O)NCc1cc(F)c(N2CCC(=NOC3CCN(C(=O)OC(C)C)CC3)CC2)cc1F` [Example 16-6] reads 113 nM.
Same read-out and setting: the result for `CC(C)OC(=O)N1CCC(ON=C2CCN(c3cc(F)c(Cn4cccn4)cc3F)CC2)CC1` [Example 14-1, 4-{1[2,5-Difluoro-4-(pyrazol-1-ylmethyl)-phenyl]-piperidin-4-ylideneaminooxy}-piperidine-1-carboxylic acid isopropyl ester] reads 38 nM; that for `CC(C)OC(=O)N1CCC(ON=C2CCN(c3cc(F)c(CNCc4nccs4)cc3F)CC2)CC1` [Example 5-11], 332 nM; that for `CCc1cnc(-c2cc(F)c(N3CCC(=NOC4CCN(C(=O)OC(C)C)CC4)CC3)cc2F)nc1` [Example 27-21], 509 nM.
Same read-out and setting: the result for `COC(=O)c1nc(Cl)c(N2CCC(=NOC3CCN(C(=O)OC(C)C)CC3)CC2)nc1N` [Example 2-34] reads greater than 10000 nM; that for `CC(C)OC(=O)N1CCC(ON=C2CCN(c3ccc(C=O)cc3F)CC2)CC1` [Example 2-22], 318 nM; that for `CC(C)OC(=O)N1CCC(ON=C2CCN(c3cc(F)c(CN4CCCC4=O)cc3F)CC2)CC1` [Example 6-1, 4-{1-[2,5-Difluoro-4-(2-oxo-pyrrolidin-1-ylmethyl)-phenyl]-piperidin-4-ylideneaminooxy}-piperidine-1-carboxylic acid isopropyl ester], 40 nM.
Take `CC(C)OC(=O)N1CCC(ON=C2CCN(c3cc(O)ncc3F)CC2)CC1` [Example 2-74]: the EC50 is greater than 10000 nM.
The same measure, in the same setting: the result for `CC(C)OC(=O)N1CCC(ON=C2CCN(c3cc(F)c(-c4ccncc4)cc3F)CC2)CC1` [Example 27-5] reads 378 nM; that for `CC(C)OC(=O)N1CCC(ON=C2CCN(c3cc(F)c(CN4CCCC4)cc3F)CC2)CC1` [Example 5-1, 4-[1-(2,5-Difluoro-4-pyrrolidin-1-ylmethyl-phenyl)-piperidin-4-ylideneaminooxy]-piperidine-1-carboxylic acid isopropyl ester], 7830 nM.
The same measure, in the same setting: the value for `CC(C)OC(=O)N1CCC(ON=C2CCN(c3ccc(CO)c(Cl)n3)CC2)CC1` [Example 2-26] was 758 nM; that for `CC(C)OC(=O)N1CCC(ON=C2CCN(c3ncc(Cl)c(Cl)n3)CC2)CC1` [Example 2-50] was greater than 10000 nM; that for `CC(=O)OCc1cc(F)c(N2CCC(=NOC3CCN(C(=O)OC(C)C)CC3)CC2)cc1F` [Example 11-1, 4-[1-(4-acetoxymethyl-2,5-difluoro-phenyl)-piperidin-4-ylideneaminooxy]-piperidine-1-carboxylic acid isopropyl ester] was 67 nM.
Same read-out and setting: the result for `CC(C)OC(=O)N1CCC(ON=C2CCN(c3cc(F)c(Cn4cncn4)cc3F)CC2)CC1` [Example 14-18] reads 1350 nM.

The assay is the same for the next values; noted with them: the 15th table; read-out: EC50.
Turning to `CC(C)OC(=O)N1CCC(ON=C2CCN(c3cc(F)c(C(=O)N4CCCC[C@H]4CN4CCCC4)cc3F)CC2)CC1` [Example 29-31], the EC50 was found to be 225 nM.

The same assay, now with this note: the 19th table; unit inferred; read-out: EC 50.
For `CCc1cnc(N2CCC(ON=C3CCN(c4cc(F)c(C(=O)N5CCC[C@H]5CNC)cc4F)CC3)CC2)nc1` [Example 29-134], the EC50 was determined as 437 nM.
On the same count and under the same terms, the value for `CCc1cnc(N2CCC(ON=C3CCN(c4cc(F)c(C(=O)NCC5CCCNC5)cc4F)CC3)CC2)nc1` (centres unmarked) [Example 29-93] was 56 nM; that for `CCc1cnc(N2CCC(ON=C3CCN(c4cc(F)c(C(=O)N5CCC[C@@H]5CN)cc4F)CC3)CC2)nc1` [Example 29-132] was 114 nM.

Staying with this assay, now noted: the 33rd table; read-out: EC50.
Turning to `C#CCOC(=O)N1CCC(ON=C2CCN(c3ccc(S(C)(=O)=O)cc3F)CC2)CC1` [Example 64-3], the EC50 turned out to be 446 nM.
Same read-out and setting: the value for `COC(=O)C(C)(C)COC(=O)N1CCC(ON=C2CCN(c3ccc(S(C)(=O)=O)cc3F)CC2)CC1` [Example 64-30] was 277 nM.

Still in this assay, the particulars now being: the 34th table, compounds 65-1 to 65-24; read-out: EC50.
For the compound `CS(=O)(=O)c1ccc(N2CCC(=NOC3CCN(C(=O)OCc4ccccc4)CC3)CC2)c(F)c1` [Example 65-14], the EC50 amounted to 153 nM.

The assay is the same for the next values; noted with them: the 36th table, compounds 66-1 to 66-51; read-out: EC50.
Turning to `CS(=O)(=O)c1ccc(N2CCC(=NOC3CCN(Cc4ccccn4)CC3)CC2)c(F)c1` [Example 66-3], the EC50 is greater than 10000 nM.
The same measure, in the same setting: the result for `CS(=O)(=O)c1ccc(N2CCC(=NOC3CCN(Cc4ccccc4C(F)(F)F)CC3)CC2)c(F)c1` [Example 66-29] reads 1220 nM; that for `CS(=O)(=O)c1ccc(N2CCC(=NOC3CCN(Cc4cccc(C(F)(F)F)c4)CC3)CC2)c(F)c1` [Example 66-30], 1740 nM.
For the compound `Cn1ccnc1CN1CCC(ON=C2CCN(c3ccc(S(C)(=O)=O)cc3F)CC2)CC1` [Example 66-12], the EC50 was greater than 10000 nM.
On the same count and under the same terms, the result for `Cc1nc(CN2CCC(ON=C3CCN(c4ccc(S(C)(=O)=O)cc4F)CC3)CC2)c[nH]1` [Example 66-8] reads greater than 10000 nM.

Staying with this assay, now noted: the 37th table, compounds 66-52 to 66-64; read-out: EC50.
In the case of `C/C=C/c1ccc(CN2CCC(ON=C3CCN(c4cc(F)c(S(C)(=O)=O)cc4F)CC3)CC2)cc1F` [Example 66-61], the EC50 stood at 49 nM.

The same assay, now with this note: the 38th table, compounds 66-65 to 66-72; read-out: EC50.
With `CCCc1ccc(CN2CCC(ON=C3CCN(c4cc(F)c(C(=O)NC)cc4F)CC3)CC2)cc1` [Example 66-72], the EC50 is 109 nM.
As for `CNC(=O)c1cc(F)c(N2CCC(=NOC3CCN(Cc4ccc(-c5ccccn5)cc4)CC3)CC2)cc1F` [Example 66-65], the EC50 came out at 792 nM.
On the same count and under the same terms, the value for `CNC(=O)c1cc(F)c(N2CCC(=NOC3CCN(Cc4ccc(-c5cccnc5)cc4)CC3)CC2)cc1F` [Example 66-66] was 1270 nM.

Staying with this assay, now noted: the 39th table, compounds 67-1 to 67-3; read-out: EC50.
Regarding `Cc1ccc(N2CCC(ON=C3CCN(c4ccc(S(C)(=O)=O)cc4F)CC3)CC2)nc1` [Example 67-1, 1-(2-Fluoro-4-methanesulfonyl-phenyl)-piperidin-4-one O-(5′-methyl-3,4,5,6-tetrahydro-2H-[1,2′]bipyridinyl-4-yl)-oxime], the EC50 stood at 386 nM.

The assay is the same for the next values; noted with them: the 43rd table, compounds 75-1 to 75-38; read-out: EC50.
For the compound `CC(C)OC(=O)N1CCC(ON=C2CCN(c3cc(F)c(CC(=O)N4CCNCC4)cc3F)CC2)CC1` [Example 75-25], the EC50 turned out to be 92 nM.
Still for that read-out and setting: the result for `CC(C)OC(=O)N1CCC(ON=C2CCN(c3cc(F)c(CC(=O)NCC4CCCNC4)cc3F)CC2)CC1` (centres unmarked) [Example 75-23] reads 380 nM; that for `CC(C)OC(=O)N1CCC(ON=C2CCN(c3cc(F)c(CC(=O)N4CCCCC4CN4CCCC4)cc3F)CC2)CC1` (centres unmarked) [Example 75-30], 333 nM; that for `CC(C)OC(=O)N1CCC(ON=C2CCN(c3cc(F)c(CC(=O)N4CCC[C@H]4CN4CCCC4)cc3F)CC2)CC1` [Example 75-29], 2910 nM.
Take `CC(C)OC(=O)N1CCC(ON=C2CCN(c3cc(F)c(CC(=O)N4CCC(CN)CC4)cc3F)CC2)CC1` [Example 75-9]: the EC50 worked out at 144 nM.

The same assay, now with this note: the 44th table, compounds 77-1 to 77-14; read-out: EC50.
With `CCc1cnc(N2CCC(ON=C3CCN(c4cc(F)c(CC(=O)N5CC[C@@H](N(C)C)C5)cc4F)CC3)CC2)nc1` [Example 77-6], the EC50 was 9 nM.
